Where two headings read alike, the source gives them in different places.
Tests used:
[1] = test system: HCV replicon in HUH-7 cells; assay: HCV replicon FRET assay; format: cell-based, Hepatitis C virus (strain 1b); conditions: Table 1
Text: An HCV replicon whole cell system was established as described by Lohmann V, Korner F, Koch J, Herian U, Theilmann L, Bartenschlager R., Science 285(5424): 110-3 (1999). This system enabled us to evaluate the effects of our HCV Protease compounds on HCV RNA replication. Briefly, using the HCV strain 1b sequence described in the Lohmann paper (Assession number: AJ238799), an HCV cDNA was synthesized by Operon Technologies, Inc. (Alameda, Calif.), and the full-length replicon was then assembled in plasmid pGem9zf(+) (Promega, Madison, Wis.) using standard molecular biology techniques. The replicon consists of (i) the HCV 5′ UTR fused to the first 12 amino acids of the capsid protein, (ii) the neomycin phosphotransferase gene (neo), (iii) the IRES from encephalomyocarditis virus (EMCV), and (iv) HCV NS3 to NS5B genes and the HCV 3′ UTR. Plasmid DNAs were linearized with ScaI and RNA transcripts were synthesized in vitro using the T7 MegaScript transcription kit (Ambion, Austin, Tex.) according to manufacturer's directions. In vitro transcripts of the cDNA were transfected into the human hepatoma cell line, HUH-7. […] Resulting cell lines were characterized for positive and negative strand RNA production and protein production over time.
The HCV replicon FRET assay was developed to monitor the inhibitory effects of compounds described in the disclosure on HCV viral replication. HUH-7 cells, constitutively expressing the HCV replicon, were grown in Dulbecco's Modified Eagle Media (DMEM) (Gibco-BRL) containing 10% Fetal calf serum (FCS) (Sigma) and 1 mg/ml G418 (Gibco-BRL). Cells were seeded the night before (1.5×10^4 cells/well) in 96-well tissue-culture sterile plates. Compound and no compound controls were prepared in DMEM containing 4% FCS, 1:100 Penicillin/Streptomysin (Gibco-BRL), 1:100 L-glutamine and 5% DMSO in the dilution plate (0.5% DMSO final concentration in the assay). Compound/DMSO mixes were added to the cells and incubated for 4 days at 37° C. After 4 days, cells were first assessed for cytotoxicity using alamar Blue (Trek Diagnotstic Systems) for a CC50 reading. The toxicity of compound (CC50) was determined by adding 1/10th volume of alamarBlue to the media incubating the cells. After 4 h, the fluorescence signal from each well was read, with an excitation wavelength at 530 nm and an emission wavelength of 580 nm, using the Cytofluor Series 4000 (Perspective Biosystems). Plates were then rinsed thoroughly with Phosphate-Buffered Saline (PBS) (3 times 150 μl). The cells were lysed with 25 μl of a lysis assay reagent containing an HCV protease substrate (5× cell Luciferase cell culture lysis reagent (Promega #E153A) diluted to 1× with distilled water, NaCl added to 150 mM final, the FRET peptide substrate (as described for the enzyme assay above) diluted to 10 μM final from a 2 mM stock in 100% DMSO. The plate was then placed into the Cytofluor 4000 instrument which had been set to 340 nm excitation/490 nm emissions, automatic mode for 21 cycles and the plate read in a kinetic mode. EC50 determinations were carried out as described for the IC50 determinations.

[2] = target: T1, HCV NS3/4A protease complex (BMS strain) (UniProt P27958); assay: FRET peptide assay to monitor HCV NS3/4A proteolytic activity, BMS strain; format: biochemical, Hepatitis C virus (genotype 1a); conditions: read-out: IC50 Range; HCV NS3/4A enzyme assay; Table 1
T1 construct: other: HCV NS3/4A enzyme assay; said of H77 and J4L6S; fused on or other part: Three-lysine solubilising tail at the NS4A C-terminus and a His tag from pET21b (Ni-NTA purification), for the H77 and J4L6S constructs
T1 sequence (P27958 1027-1657, one chain of several): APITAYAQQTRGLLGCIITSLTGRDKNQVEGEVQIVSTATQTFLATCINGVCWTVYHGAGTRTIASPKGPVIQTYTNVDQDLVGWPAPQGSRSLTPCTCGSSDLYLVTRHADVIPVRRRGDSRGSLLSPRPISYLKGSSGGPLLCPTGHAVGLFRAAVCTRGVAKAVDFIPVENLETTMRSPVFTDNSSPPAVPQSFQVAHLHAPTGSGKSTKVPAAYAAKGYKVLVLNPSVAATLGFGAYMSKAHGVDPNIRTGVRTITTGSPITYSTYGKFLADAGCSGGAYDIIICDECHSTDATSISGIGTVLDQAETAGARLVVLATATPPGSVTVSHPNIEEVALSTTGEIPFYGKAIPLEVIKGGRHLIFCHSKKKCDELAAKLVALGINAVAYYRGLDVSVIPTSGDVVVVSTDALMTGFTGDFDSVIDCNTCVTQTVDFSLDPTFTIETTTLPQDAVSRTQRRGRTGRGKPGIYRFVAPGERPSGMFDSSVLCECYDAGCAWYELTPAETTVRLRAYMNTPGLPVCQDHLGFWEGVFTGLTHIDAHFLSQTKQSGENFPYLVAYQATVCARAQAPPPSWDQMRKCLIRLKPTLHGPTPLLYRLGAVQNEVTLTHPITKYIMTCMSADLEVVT
Text: HCV NS3 protease complexes, derived from the BMS strain, H77 strain or J4L6S strain, were generated, as described below. These purified recombinant proteins were generated for use in a homogeneous assay (see below) to provide an indication of how effective compounds of the present disclosure would be in inhibiting HCV NS3 proteolytic activity.
Serum from an HCV-infected patient was obtained from Dr. T. Wright, San Francisco Hospital. An engineered full-length cDNA (compliment deoxyribonucleic acid) template of the HCV genome (BMS strain) was constructed from DNA fragments obtained by reverse transcription-PCR (RT-PCR) of serum RNA (ribonucleic acid) and using primers selected on the basis of homology between other genotype 1a strains. From the determination of the entire genome sequence, a genotype 1a was assigned to the HCV isolate according to the classification of Simmonds et al. (See P Simmonds, K A Rose, S Graham, S W Chan, F McOmish, B C Dow, E A Follett, P L Yap and […] Marsden, J. Clin. Microbiol., 31(6), 1493-1503 (1993)). […] The infectious clones, H77 (1a genotype) and J4L6S (1b genotype) were obtained from R. Purcell (NIH) and the sequences are published in Genbank (AAB67036, see Yanagi, M., Purcell, R. H., Emerson, S. U. and Bukh, J. Proc. Natl. Acad. Sci. U.S.A. 94(16), 8738-8743 (1997); AF054247, see Yanagi, M., St Claire, M., Shapiro, M., Emerson, S. U., Purcell, R. H. and Bukh, J, Virology 244 (1), 161-172. (1998)).
NS3/4A protease complex-containing fractions were pooled and loaded on a desalting column Superdex-S200 pre-equilibrated with buffer D (25 mM HEPES, pH 7.5, 20% glycerol, 300 mM NaCl, 0.2% Triton X-100, 10 mM βME). Sample was loaded at a flow rate of 1 mL/min. NS3/4A protease complex-containing fractions were pooled and concentrated to approximately 0.5 mg/ml. The purity of the NS3/4A protease complexes, derived from the BMS, H77 and J4L6S strains, were judged to be greater than 90% by SDS-PAGE and mass spectrometry analyses. The enzyme was stored at −80° C., thawed on ice and diluted prior to use in assay buffer.
The purpose of this in vitro assay was to measure the inhibition of HCV NS3 protease complexes, derived from the BMS strain, H77 strain or J4L6S strain, as described above, by compounds of the present disclosure. This assay provides an indication of how effective compounds of the present disclosure would be in inhibiting HCV NS3 proteolytic activity.
In order to monitor HCV NS3/4A protease activity, an NS3/4A peptide substrate was used. The substrate was RET S1 (Resonance Energy Transfer Depsipeptide Substrate; AnaSpec, Inc. cat # 22991) (FRET peptide), described by Taliani et al. in Anal. Biochem. 240(2):60-67 (1996). The sequence of this peptide is loosely based on the NS4A/NS4B natural cleavage site for the HCV NS3 protease except there is an ester linkage rather than an amide bond at the cleavage site. The peptide also contains a fluorescence donor, EDANS, near one end of the peptide and an acceptor, DABCYL, near the other end. The fluorescence of the peptide is quenched by […] resonance energy transfer (RET) between the donor and the acceptor, but as the NS3 protease cleaves the peptide the products are released from RET quenching and the fluorescence of the donor becomes apparent.
The peptide substrate was incubated with one of the three recombinant NS3/4A protease complexes, in the absence or presence of a compound of the present disclosure. The inhibitory effects of a compound were determined by monitoring the formation of fluorescent reaction product in real time using a Cytofluor Series 4000.
Assay buffer: 50 mM HEPES, pH 7.5; 0.15 M NaCl; 0.1% Triton; 15% Glycerol; 10 mM βME. Substrate: 2 μM final concentration (from a 2 mM stock solution in DMSO stored at −20° C.). HCV NS3/4A protease type 1a (1b), 2-3 nM final concentration (from a 5 μM stock solution in 25 mM HEPES, pH 7.5, 20% glycerol, 300 mM NaCl, 0.2% Triton-X100, 10 mM βME). […]

[3] = Hepatitis C virus, Huh-7, read-out: EC50 Range, HCV replicon cell assay
[4] = read-out: EC50 Range, HCV replicon cell assay

Structure (SMILES) | EC50 [1, 3] | IC50 [2] | EC50 [1, 4]
C=C[C@@H]1C[C@]1(NC(=O)[C@@H]1C[C@@H](Oc2nccc3ccccc23)CN1C(=O)[C@@H](OC(=O)NCC)C(C)(C)C)C(=O)NS(=O)(=O)C1CC1 [Example 25] | 0.5 to 5 µM | 100 to 1000 nM | 
C=C[C@@H]1C[C@]1(NC(=O)[C@@H]1C[C@@H](Oc2nccc3ccccc23)CN1C(=O)[C@@H](OC(=O)NC(C)C)C(C)(C)C)C(=O)NS(=O)(=O)C1CC1 [Example 26] | 0.5 to 5 µM | 100 to 1000 nM | 
C=C[C@@H]1C[C@]1(NC(=O)[C@@H]1C[C@@H](Oc2nccc3ccccc23)CN1C(=O)[C@@H](OC(=O)NC1CCCCC1)C(C)(C)C)C(=O)NS(=O)(=O)C1CC1 [Example 27] | 0.5 to 5 µM | < 100 nM | 
C=C[C@@H]1C[C@]1(NC(=O)[C@@H]1C[C@@H](Oc2nccc3ccccc23)CN1C(=O)[C@@H](OC(=O)Nc1ccccc1)C(C)(C)C)C(=O)NS(=O)(=O)C1CC1 [Example 28] | 0.5 to 5 µM | 100 to 1000 nM | 
C=C[C@@H]1C[C@]1(NC(=O)[C@@H]1C[C@@H](Oc2nccc3ccccc23)CN1C(=O)[C@@H](OC(=O)Nc1ccccc1OC)C(C)(C)C)C(=O)NS(=O)(=O)C1CC1 [Example 29] | 0.5 to 5 µM | 100 to 1000 nM | 
C=C[C@@H]1C[C@]1(NC(=O)[C@@H]1C[C@@H](Oc2nccc3ccccc23)CN1C(=O)[C@@H](OC(=O)Nc1ccc(F)cc1)C(C)(C)C)C(=O)NS(=O)(=O)C1CC1 [Example 30] | 0.5 to 5 µM | 100 to 1000 nM | 
C=C[C@@H]1C[C@]1(NC(=O)[C@@H]1C[C@@H](Oc2nccc3ccccc23)CN1C(=O)[C@@H](OC(=O)Nc1ccc(OC)cc1)C(C)(C)C)C(=O)NS(=O)(=O)C1CC1 [Example 31] | 0.5 to 5 µM | 100 to 1000 nM | 
C=C[C@@H]1C[C@]1(NC(=O)[C@@H]1C[C@@H](Oc2nccc3ccccc23)CN1C(=O)[C@@H](OC(=O)Nc1ccccc1C(C)C)C(C)(C)C)C(=O)NS(=O)(=O)C1CC1 [Example 32] | 0.5 to 5 µM | 100 to 1000 nM | 
C=C[C@@H]1C[C@]1(NC(=O)[C@@H]1C[C@@H](Oc2nccc3ccccc23)CN1C(=O)[C@@H](OC(=O)Nc1ccc(C(C)(C)C)cc1)C(C)(C)C)C(=O)NS(=O)(=O)C1CC1 [Example 33] | 0.5 to 5 µM | 100 to 1000 nM | 
C=C[C@@H]1C[C@]1(NC(=O)[C@@H]1C[C@@H](Oc2nccc3cc(OC)ccc23)CN1C(=O)[C@@H](O)C(C)C)C(=O)NS(=O)(=O)C1CC1 [Example 50Compound 50] |  | 100 to 1000 nM | 0.5 to 5 µM
C=C[C@@H]1C[C@]1(NC(=O)[C@@H]1C[C@@H](Oc2nccc3cc(OC)ccc23)CN1C(=O)[C@@H](OC(=O)NC1CCCC1)C(C)C)C(=O)NS(=O)(=O)C1CC1 [Example 51Compound 51] |  | < 100 nM | 0.5 to 5 µM
C=C[C@@H]1C[C@]1(NC(=O)[C@@H]1C[C@@H](Oc2nccc3cc(OC)ccc23)CN1C(=O)[C@@H](OC(=O)NC1(C(F)(F)F)CC1)C(C)C)C(=O)NS(=O)(=O)C1CC1 [Example 54Compound 54] | 0.5 to 5 µM | 100 to 1000 nM | 
C=C[C@@H]1C[C@]1(NC(=O)[C@@H]1C[C@@H](Oc2cc(-c3cccs3)cc(-c3ccccc3)n2)CN1C(=O)[C@@H](OC(=O)NC(C)(C)C)C(C)(C)C)C(=O)NS(=O)(=O)C1CC1 [Example 55Compound 55] | 0.5 to 5 µM | < 100 nM | 
C=C[C@@H]1C[C@]1(NC(=O)[C@@H]1C[C@@H](Oc2ncnc3ccccc23)CN1C(=O)[C@@H](OC(=O)NC(C)(C)C)C(C)(C)C)C(=O)NS(=O)(=O)C1CC1 [Example 57Compound 57] | 0.5 to 5 µM | 100 to 1000 nM | 
C=C[C@@H]1C[C@]1(NC(=O)[C@@H]1C[C@@H](Oc2nccc3cc(OC)ccc23)CN1C(=O)[C@@H](OC(=O)NC(C)(C)C)C(C)(C)C)C(=O)NS(=O)(=O)N(C)C [Example 58Compound 58] | 0.5 to 5 µM | < 100 nM | 
C=C[C@@H]1C[C@]1(NC(=O)[C@@H]1C[C@@H](Oc2nccc3cc(OC)ccc23)CN1C(=O)[C@@H](OC(=O)NC(C)(C)C)C(C)(C)C)C(=O)NS(=O)(=O)c1ccccc1 [Example 59Compound 59] | 0.5 to 5 µM | 100 to 1000 nM | 
C=C[C@@H]1C[C@]1(NC(=O)[C@@H]1C[C@@H](Oc2nccc3cc(OC)ccc23)CN1C(=O)[C@@H](OC(=O)NC(C)(C)C)C(C)(C)C)C(=O)NS(=O)(=O)c1cn(C)cn1 [Example 60Compound 60] | > 5 µM | > 1000 nM | 
C=C[C@@H]1C[C@]1(NC(=O)[C@@H]1C[C@@H](Oc2nc(-c3ccc(OC(F)(F)F)cc3)cc3cc(OC)ccc23)CN1C(=O)[C@@H](O)[C@@H](C)CC)C(=O)NS(=O)(=O)C1CC1 [Example 61Compound 61] | 0.5 to 5 µM | 100 to 1000 nM | 
